The experiment concerns the target T1, PPARα (Homo sapiens, UniProt Q07869).
T1 construct: made in house; host or cells: Sf9 insect cells (baculovirus), crude cell lysate
T1 sequence (Q07869 1-468): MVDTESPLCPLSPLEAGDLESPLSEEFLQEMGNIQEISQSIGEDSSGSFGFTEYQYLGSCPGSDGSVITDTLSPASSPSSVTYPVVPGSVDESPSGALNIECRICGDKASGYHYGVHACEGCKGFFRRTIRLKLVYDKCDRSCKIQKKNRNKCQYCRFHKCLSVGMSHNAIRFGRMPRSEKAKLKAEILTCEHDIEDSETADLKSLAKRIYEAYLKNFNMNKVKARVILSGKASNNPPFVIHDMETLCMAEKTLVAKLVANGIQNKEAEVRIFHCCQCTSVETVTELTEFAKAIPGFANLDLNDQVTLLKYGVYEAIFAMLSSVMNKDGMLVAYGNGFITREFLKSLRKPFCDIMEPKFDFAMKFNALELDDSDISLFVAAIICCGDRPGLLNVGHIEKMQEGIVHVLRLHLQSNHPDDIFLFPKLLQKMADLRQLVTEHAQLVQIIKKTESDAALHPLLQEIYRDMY
T1 sequence (P19793 1-462 partner): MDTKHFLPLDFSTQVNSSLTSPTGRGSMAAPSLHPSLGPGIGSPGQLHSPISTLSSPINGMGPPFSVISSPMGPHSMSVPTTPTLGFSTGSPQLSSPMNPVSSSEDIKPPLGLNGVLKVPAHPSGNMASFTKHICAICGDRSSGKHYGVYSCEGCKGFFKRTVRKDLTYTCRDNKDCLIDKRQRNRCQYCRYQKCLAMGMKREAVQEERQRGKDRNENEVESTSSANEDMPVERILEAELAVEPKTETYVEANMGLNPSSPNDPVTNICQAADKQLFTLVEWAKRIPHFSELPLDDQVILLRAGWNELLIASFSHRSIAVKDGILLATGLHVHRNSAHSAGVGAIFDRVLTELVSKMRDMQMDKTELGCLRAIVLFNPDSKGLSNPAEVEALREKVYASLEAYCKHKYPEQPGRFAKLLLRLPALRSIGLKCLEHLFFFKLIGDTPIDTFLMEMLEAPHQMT
Put plainly: PPAR alpha binding assay (SPA). As to conditions: tritiated GW2331, n=3, read-out: Ki PPAR α binding. An excerpt: The nucleotide sequences encoding full-length PPARα receptor DNA (National Center for Biotechnology Information (NCBI) Reference Sequence NM_005036.4), PPARδ receptor DNA (NCBI Reference Sequence NM_006238.4), PPARγ receptor DNA (NCBI Reference Sequence NM_015869.4) and Retinoid X Receptor (RXR) α DNA (NCBI Reference Sequence NM_002957.4) are synthesized and inserted into pFastBacHTb (Invitrogen) vector in-framed with the N-terminal HIS tag from the vector. […] The protein concentration is determined by Bradford assay using BSA as the standard.
Binding Affinities of Compounds for the PPAR α, δ, γ Receptors are Assessed Using Scintillation Proximity Assay (SPA) Technology.
Biotinylated oligonucleotide(DR2) ^5′[…]^3′ (SEQ ID NO: 1) is used for binding of receptors to Yttrium silicate streptavidin-coated SPA beads (Perkin Elmer). The PPAR α, δ, γ and Retinoid X Receptor (RXR) α receptors (endogenously expressed as heterodimers) are cell lysates from Baculovirus expression systems in Sf9 cells. […] Non-specific binding is determined in the presence of 10000 nM unlabeled GW2331 (Kliewer, S. A. et al Proc. Natl. Acad. Sci. USA (1997), 94: 4318-4323) for the alpha and delta receptors and 2-methyl-2-[4-[3-[propyl[(5-pyridin-2-ylthiophen-2-yl)sulfonyl]amino]-propyl]phenoxy]propanoic (WO 2004/073606) for the gamma receptor. […]

Usually Ki stands for the equilibrium dissociation constant of an inhibitor or competing ligand from its target. With `CCCc1c(NC(=O)CC(C)(C)C(=O)[O-])cccc1OCCCOc1cc(O)c(-c2ccc(F)cc2)cc1CC.[Na+]` [Example 2, Sodium 4-[[3-[3-[2-ethyl-4-(4-fluorophenyl)-5-hydroxy-phenoxy]propoxy]-2-propyl-phenyl]amino]-2,2-dimethyl-4-oxo-butanoate], the Ki was about 617 nM.
